# Experimental data: US20180256460A1, “STAIN-REMOVING ORAL COMPOSITION” (LOTTE CO., LTD., priority 2014, published 2018)
# Entries after “also recorded” stand apart in the source; their conditions may differ.
# Key:
# [1] = Stain-removing effect of saliva solutions containing chewing gum components, color difference of stained hydroxyapatite discs; details: for Stain-removing effect of the acidulant itself: color difference: 0.1% in saliva solution, pH 6, compared to the saliva alone (pH 7), FIG. 3A, n=5, p<0.05
# Experimental: Each research volunteer was asked to masticate one tablet of salivary gum (Morita Corporation), and about 30 ml of the saliva was collected respectively. The collected saliva was all combined in one container (beaker) so that personal information could not be traced. The collected saliva was centrifuged at 2,500×g for 10 minutes, and the supernatant was used as a saliva sample for a solvent in a testing solution.
# The amount of the saliva collected when masticating 2 tablets of gum for 5 minutes was 15 ml on average. The sugar alcohol or acidulant was dissolved under stirring in a weight ratio corresponding to 2 tablets of the sample chewing gum into 15 ml of the saliva sample processed with the procedure of 2. That is, to 15 ml of a saliva sample, 2.31 g (15.4%) of the sugar alcohol or 15 mg (0.1%) of the acidulant was added and dissolved. Sodium metaphosphate was dissolved under stirring in an amount needed for each testing. For pH adjustment, an aqueous solution of hydrochloric acid or sodium hydroxide was used.
# 3% green tea extract, 1% black tea extract, and 1% instant coffee were dissolved under stirring in mineral water at 100° C. to obtain a staining liquid (instant coffee; Ajinomoto General Foods, Inc., mineral water; Suntory Foods Limited).
# Hydroxyapatite discs (10 mm×10 mm, APP-100, HOYA Corporation) the surfaces of which were uniformly polished with a P400 waterproof abrasive paper were used as human enamel models. The hydroxyapatite discs after polishing were subjected to color measurement by the method of 6. as mentioned below to obtain reference values for the discs. The hydroxyapatite discs were separately put in a 12-well plate (IWAKI&Co., Ltd.) and immersed in 2.5 ml of the saliva sample and allowed to stand still at 37° C. for 2 hours so that saliva pellicles were formed on the surface. The discs were washed with water, and immersed in 2.5 ml of the staining liquid each added in each well of a fresh 12-well plate, and moderately shook at 37° C. for 24 hours so that stains were formed. The hydroxyapatite discs after staining were subjected to color measurement by the method in 6. mentioned below to obtain measurement values after staining. Hydroxyapatite discs after staining subjected to color measurement were placed in a fresh 12-well plate, and 2.5 ml of the saliva sample, the saliva solution containing chewing gum components, or the chewing gum extract solution was dispensed in each well, then the discs were immersed for 5 minutes or 35 minutes. The immersed discs were washed with distilled water, and extra water was wiped off with paper to dry the discs, followed by color measurement.
# A spectrophotometer (CM-700d, Konica Minolta, Inc.) was set upright so that the colorimetric direction was upward. Hydroxyapatite discs before the pellicle formation, after staining or after the solution treatment were allowed to stand still above the colorimetric light source, and color measurements were performed 3 times successively, and the average value was employed. Color measurements were performed on the L*axis (lightness), the a*axis (chroma: red-green axis), and the b*axis (chroma: yellow-blue axis) of the L*a*b*color space based on JIS Z 8722:2009, under the condition of SCI including reflected light. […] E*ab was calculated according to the following expressions. […]
# [2] = aqueous system; cited from earlier work
molecule,measurement,setting,value
O=C(O)CC(O)(CC(=O)O)C(=O)O [citric acid],Stain-removing effect of the acidulant itself: color difference,[1],a decrease in the color difference was observed
sodium metaphosphate,Stain-removing effect: color difference of stained hydroxyapatite discs,"[1]; 0.066% or 0.2% in the saliva, compared to the saliva alone, FIG. 1, n=6, p<0.05",a significant difference was observed compared to the case where the discs were treated with the saliva alone; also recorded: a significant decrease in the color difference was observed
same,Influence of pH on stain removal: transition of the color difference,"[1]; saliva with 0.1% sodium metaphosphate, pH 5 compared to pH 7, FIG. 3C, n=6, p<0.05",a significant difference in the transition of the color difference was observed
O=P(=O)O [metaphosphoric acid],pKa,[2],as small as not measurable in an aqueous system
O=C(O)CC(O)C(=O)O (centres unmarked) [malic acid],Stain-removing effect of the acidulant itself: color difference,[1],a decrease in the color difference was observed
